From patent publication US11279733B2, “Peptide antibiotics” (priority 2017, dated 2022)
Values after ≈ are worked out from the molar mass of the structure shown. Like-named read-outs stand apart in the source and are kept apart here. Positions of bridges follow the written chain, without caps; N, C: chain ends. Non-standard residues stand in square brackets, D forms with d. Residues, ends and D or L forms follow the SMILES beside them. *: point of attachment. Decanoyl(3R-OH) = CCCCCCC[C@@H](O)CC(=O)*; dBip = N[C@H](Cc1ccc(-c2ccccc2)cc1)C(=O)O; dDab = NCC[C@@H](N)C(=O)O; Dab = NCC[C@H](N)C(=O)O; Dap = NC[C@H](N)C(=O)O

Experiments:
in vitro = conditions: human
Experimental: Cytotoxicity of the synthesised peptides was evaluated by comparison with commercially available colistin (polymyxin E), polymyxin B (Sigma chemical Co., St. Louis, Mo., U.S.A.) and synthetic octapeptin C4 by conducting lactate dehydrogenase (LDH) assay. CC50 values calculated based on curve fitting of dose dependent inhibition of cell growth represented the cytotoxicity of the peptide. Human kidney 2 (HK2) cells were seeded as 2000 cells per well in a 384 well cell culture plate in a final volume of 20 μL in DMEM/F12 medium (Invitrogen #11330057), in which 10% of FBS was added. Cells were incubated for 24 hours at 37° C., 5% CO2 to allow cells to attach to the plates. Similar conditions were employed for HEK293 and HepG2 cytotoxicity assays.
Colistin and polymyxin B were tested from a range of 2 mM to 0.9 μM. 120 μL of the 1 mM stock solutions in water of each synthesised peptide were freeze-dried and processed for LDH assay. After freeze-dry procedure, the compounds were reconstituted into 600 μM solutions using culture media. All tested compounds were diluted from 600 μM to 0.27 μM in 3-fold dilutions. Then 20 μL of each dilution was added into 20 uL of culture medium in quadruplicate to reach the final concentrations. The cells were incubated with the compounds for 24 h at 37° C., 5% CO2. After the incubation, 5 μL of culture medium was added to 50 μL of LDH assay buffer and incubated for 1 h at room temperature. The absorbance was read at 450 nm using Polarstar. The data was then analysed by Prism software. […] Nephrotoxicity Assessment in Human Proximal Tubule Cells.

[1] = test system: K. pneumoniae GN_106, PmxR; conditions: GN 106, PmxR
Outline: (§1)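 Mid-log cultures grown in Mueller Hinton broth at 37° C were tested by 2-fold broth microdilution at 5×10^5 CFU/mL final. Compounds were dissolved in water and tested over a final range of 32 to 0.015 μg/mL.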

[2] = test system: S. aureus ATCC 25923, MSSA; conditions: ATCC 25923
Outline: as §1

E. coli ATCC 25922 = conditions: ATCC 25922
Outline: as §1

A. baumannii GN_093 PmxR = conditions: GN 093 PmxR
Outline: as §1

A. baumannii ATCC 19606 = conditions: ATCC 19606
Outline: as §1

[3] = test system: P. aeruginosa GN_043, PmxR
Outline: as §1

K. pneumoniae ATCC 13883 = conditions: ATCC 13883
Outline: as §1

[4] = test system: K. pneumoniae ATCC BAA-2146, NDM-1 pos; conditions: ATCC BAA-2146
Outline: as §1

[5] = test system: K. pneumoniae ATCC 700603, MDR; conditions: ATCC 700603
Outline: as §1

[6] = test system: P. aeruginosa GN_105, PmxR; conditions: GN 105, PmxR
Outline: as §1

[7] = test system: K. pneumoniae GN_102 PmxR; conditions: GN 102 PmxR
Outline: as §1

P. aeruginosa ATCC 27853 = conditions: ATCC 27853
Outline: as §1

| SMILES | CC50 at 24 h (in vitro) [µM] | MIC K. pneumoniae GN_106, PmxR [1] [µg/mL] | MIC A. baumannii GN_093 PmxR (A. baumannii GN_093 PmxR) [µg/mL] | MIC P. aeruginosa GN_105, PmxR [6] [µg/mL] | MIC K. pneumoniae GN_102 PmxR [7] [µg/mL] | MIC S. aureus ATCC 25923, MSSA [2] [µg/mL] | MIC E. coli ATCC 25922 (E. coli ATCC 25922) [µg/mL] | MIC A. baumannii ATCC 19606 (A. baumannii ATCC 19606) [µg/mL] | MIC P. aeruginosa GN_043, PmxR ([3]; P. aeruginosa GN_043, PmxR) [µg/mL] | MIC K. pneumoniae ATCC 13883 (K. pneumoniae ATCC 13883) [µg/mL] | MIC K. pneumoniae ATCC BAA-2146, NDM-1 pos [4] [µg/mL] | MIC K. pneumoniae ATCC 700603, MDR [5] [µg/mL] | MIC P. aeruginosa ATCC 27853 (P. aeruginosa ATCC 27853) [µg/mL] | other results |
| --- | --- | --- | --- | --- | --- | --- | --- | --- | --- | --- | --- | --- | --- | --- |
| CCCCCCC[C@@H](O)CC(=O)N[C@H](C)C(=O)N[C@H]1CCNC(=O)[C@H](CC(C)C)NC(=O)[C@H](CCN)NC(=O)[C@H](CCN)NC(=O)[C@H](CC(C)C)NC(=O)[C@@H](Cc2ccccc2)NC(=O)[C@H](CCN)NC1=O [compound 4951, 3(R)OH-nC9CO-D-Ala-cyc[L-Dab-L-Dab-D-Phe-L-Leu-L-Dab-L-Dab-L-Leu]] ({Decanoyl(3R-OH)}-[dA][Dab][Dab][dF]L[Dab][Dab]L; lactam 2-C) | 120 | 8 (≈ 7.88 µM) | 32 (≈ 31.5 µM) | 16 (≈ 15.8 µM) | 4 (≈ 3.94 µM) | – | – | – | – | – | – | – | – | MIC, S. aureus ATCC 25923, MSSA [2]: 32 µg/mL (≈ 31.5 µM); MIC, E. coli ATCC 25922 (E. coli ATCC 25922): 16 µg/mL (≈ 15.8 µM); MIC, A. baumannii ATCC 19606 (A. baumannii ATCC 19606): 32 µg/mL (≈ 31.5 µM); MIC P. aeruginosa GN_043, PmxR ([3]; Table 6, polymyxin-resistant): 8 µg/mL (≈ 7.88 µM); MIC, K. pneumoniae ATCC 13883 (K. pneumoniae ATCC 13883): 16 µg/mL (≈ 15.8 µM); MIC, K. pneumoniae ATCC BAA-2146, NDM-1 pos [4]: 8 µg/mL (≈ 7.88 µM); MIC, K. pneumoniae ATCC 700603, MDR [5]: 8 µg/mL (≈ 7.88 µM); MIC, P. aeruginosa ATCC 27853 (P. aeruginosa ATCC 27853): 8 µg/mL (≈ 7.88 µM) |
| CCCCCCC[C@@H](O)CC(=O)N[C@H](CCN)C(=O)N[C@H]1CCNC(=O)[C@H](CC(C)C)NC(=O)[C@H](CCN)NC(=O)[C@H](CCN)NC(=O)[C@H](CC(C)C)NC(=O)[C@@H](C)NC(=O)[C@H](CCN)NC1=O [compound 5006, 3(R)OH-nC9CO-D-Dab-cyc[L-Dab-L-Dab-D-Ala-L-Leu-L-Dab-L-Dab-L-Leu]] ({Decanoyl(3R-OH)}-[dDab][Dab][Dab][dA]L[Dab][Dab]L; lactam 2-C) | 277 | 32 (≈ 33 µM) | >32 | 32 (≈ 33 µM) | 8 (≈ 8.26 µM) | >32 | 16 (≈ 16.5 µM) | >32 | 8 (≈ 8.26 µM) | 32 (≈ 33 µM) | 32 (≈ 33 µM) | >32 | 16 (≈ 16.5 µM) | – |
| CCCCCCC[C@@H](O)CC(=O)N[C@H](CCN)C(=O)N[C@H]1CCNC(=O)[C@H](CC(C)C)NC(=O)[C@H](CCN)NC(=O)[C@H](CCN)NC(=O)[C@H](CC(C)C)NC(=O)[C@@H](Cc2ccc(-c3ccccc3)cc2)NC(=O)[C@H](CCN)NC1=O [compound 5010, 3(R)OH-nC9CO-D-Dab-cyc[L-Dab-L-Dab-D-Bip-L-Leu-L-Dab-L-Dab-L-Leu]] ({Decanoyl(3R-OH)}-[dDab][Dab][Dab][dBip]L[Dab][Dab]L; lactam 2-C) | 75 | 2 (≈ 1.78 µM) | 4 (≈ 3.57 µM) | 2 (≈ 1.78 µM) | 4 (≈ 3.57 µM) | 2 (≈ 1.78 µM) | 2 (≈ 1.78 µM) | 4 (≈ 3.57 µM) | 2 (≈ 1.78 µM) | 2 (≈ 1.78 µM) | 4 (≈ 3.57 µM) | 4 (≈ 3.57 µM) | 4 (≈ 3.57 µM) | – |
| CCCCCCC[C@@H](O)CC(=O)N[C@H](CCN)C(=O)N[C@H]1CCNC(=O)[C@H](Cc2ccccc2)NC(=O)[C@H](CN)NC(=O)[C@H](CCN)NC(=O)[C@H](CC(C)C)NC(=O)[C@@H](Cc2ccc(-c3ccccc3)cc2)NC(=O)[C@H](CCN)NC1=O [compound 5384, 3(R)OH-nC9CO-D-Dab-cyc[L-Dab-L-Dab-D-Bip-L-Leu-L-Dab-L-Dap-L-Phe]] ({Decanoyl(3R-OH)}-[dDab][Dab][Dab][dBip]L[Dab][Dap]F; lactam 2-C) | 24 | 8 (≈ 7.01 µM) | 4 (≈ 3.51 µM) | 4 (≈ 3.51 µM) | 16 (≈ 14 µM) | 4 (≈ 3.51 µM) | 4 (≈ 3.51 µM) | 8 (≈ 7.01 µM) | – | 4 (≈ 3.51 µM) | 4 (≈ 3.51 µM) | 8 (≈ 7.01 µM) | 4 (≈ 3.51 µM) | MIC P. aeruginosa GN_043, PmxR ([3]; polymyxin-resistant): 4 µg/mL (≈ 3.51 µM) |
